Experimental data from ChEMBL document CHEMBL4229330, “Synthesis and evaluation of C2 functionalized analogs of the α-tubulin-binding natural product pironetin” (Bioorg Med Chem Lett, 2018).

Experiments:
Format in all cases: cell-based
[1] = tested on: A2780; assay: Binding affinity to alpha tubulin in human A2780 cells assessed as disruption of tubulin polymerization by measuring cell proliferation at higher concentration after 48 hrs by CellTiter non-radioactive assay relative to control
[2] = organism: Homo sapiens; assay: Binding affinity to alpha tubulin in human OVCAR5 cells assessed as disruption of tubulin polymerization by measuring reduction in cell proliferation after 48 hrs by CellTiter non-radioactive assay
[3] = tested on: A2780; assay: Binding affinity to alpha tubulin in human A2780 cells assessed as disruption of tubulin polymerization by measuring reduction in cell proliferation after 48 hrs by CellTiter non-radioactive assay

Structure (SMILES)	Activity [1] [%]	GI50 [2] [nM]	GI50 [3] [µM]
C/C=C/C[C@H](C)[C@@H](OC)[C@@H](C)[C@H](O)C[C@H]1OC(=O)C(c2ccccc2)=C[C@H]1CC	10 to 20	> 50000	> 50
C/C=C/C[C@H](C)[C@@H](OC)[C@@H](C)[C@H](O)C[C@H]1OC(=O)C(F)=C[C@H]1CC	10 to 20	3240	5.11
C/C=C/C[C@H](C)[C@@H](OC)[C@@H](C)[C@H](O)C[C@H]1OC(=O)C=C[C@H]1CC	10 to 20	14.4	0.0243
C/C=C/C[C@H](C)[C@@H](OC)[C@@H](C)[C@H](O)C[C@H]1OC(=O)C(C)=C[C@H]1CC	10 to 20	3360	10.2
C/C=C/C[C@H](C)[C@@H](OC)[C@@H](C)[C@H](O)C[C@H]1OC(=O)C(Br)=C[C@H]1CC	< 10	44.9 to 26200	0.901
CC(=O)O[C@H]1C(=O)[C@@]2(C)[C@H]([C@H](OC(=O)c3ccccc3)[C@]3(O)C[C@H](OC(=O)[C@H](O)[C@@H](NC(=O)c4ccccc4)c4ccccc4)C(C)=C1C3(C)C)[C@]1(OC(C)=O)CO[C@@H]1C[C@@H]2O	10 to 20	21	0.00753
C/C=C/C[C@H](C)[C@@H](OC)[C@@H](C)[C@H](O)C[C@H]1OC(=O)C(Cl)=C[C@H]1CC	10 to 20	1080	4.48
